Test in all cases: DTP human tumour cell line panel, 48 h
The subject of assay [1] is HCT-116 colon.
Assay [2] concerns OVCAR-5 ovarian.
The test system of assay [3] is OVCAR-4 ovarian.
Assay [4] concerns MCF7 breast.
Assay [5] has as its system RXF 393 renal.
Assay [6] deals with NCI-H460 lung.
Assay [7] concerns MDA-N.
Assay [8] relates to OVCAR-8 ovarian.
The subject of assay [9] is PC-3 prostate.
The subject of assay [10] is HL-60(TB) leukemia.
The test system of assay [11] is U251 CNS.
Assay [12] relates to CAKI-1 renal.
Assay [13] deals with CCRF-CEM leukemia.
Assay [14] has as its system SK-MEL-2 melanoma.
The subject of assay [15] is IGROV1 ovarian.
For assay [16], the system named is UO-31 renal.
For assay [17], the system named is SW-620 colon.
The subject of assay [18] is SN12C renal.

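Assay format: 96-well plates, 48-hour exposure. Here, GI50 denotes the concentration required for 50% inhibition of growth. The concentration for full growth arrest is given as TGI.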 *1 amine or outer side, *2 acyl side, *3 side chain or, on linkers, in order; H or OH if unused. Where a SMILES comes first, the peptide text is derived from it. [ ]: non-standard residue; d: D form. The star is where a group is joined. ξ: configuration not given here. NMeY = CN[C@@H](Cc1ccc(O)cc1)C(=O)O; Ethylenediamine = C(CN[*:2])N[*:1]; ξNMeL = CNC(CC(C)C)C(=O)O; Cbz = O=C(OCc1ccccc1)*; Lac = C[C@H](O)C(=O)O; ξA = CC(N)C(=O)O Where only a bound is given, the exact number is not on record here.

The values that follow come from PubChem BioAssay (NCI).

By TGI is commonly meant the concentration giving total growth inhibition. A high value points to less potent growth arrest. Consider `Cc1cc(S(=O)(=O)Nc2nnc3c4ccccc4cnn23)c(S)cc1Cl`, for which the TGI in [1] was > 100 µM; in assay [2], > 100 µM; in assay [3], > 100 µM; in [4] it was > 100 µM; in [5], > 100 µM; in assay [6], > 85.1 µM. Moreover, the TGI in assay [7] was > 100 µM; in assay [8], > 100 µM; in [9] it was > 100 µM; in assay [10], > 100 µM; in assay [11], > 84.2 µM; in assay [12], > 100 µM. For the same molecule, the TGI in [13], in [14], in assay [15], in assay [16], in assay [17] and in assay [18] was > 100 µM in each case.

As for `COc1ccc(C[C@@H](C(=O)NCCNC(=O)C(CC(C)C)N(C)C(=O)[C@@H]2CCCN2C(=O)[C@H](C)O)N(C)C(=O)[C@@H]2CCCN2C(=O)[C@H](CC(C)C)NC(=O)C(C)NC(=O)OCc2ccccc2)cc1` (stereo partly specified) (Cbz-[ξA]LP[NMeY](Me)-{Ethylenediamine-ξNMeL-Pro-Lac}), the TGI in [1], in assay [2], in assay [3], in assay [4], in assay [5] and in assay [6] was > 100 µM each time. For the same molecule, the TGI in assay [7], in assay [8], in [9], in assay [10], in assay [11] and in assay [12] was > 100 µM in each case. The TGI in assay [13], in assay [14], in [15], in assay [16], in assay [17] and in assay [18] was > 100 µM throughout.

On to `CC(=O)OC1OC(c2ccoc2)C[C@@]12C1CCC3O[C@]3(C)[C@]1(C)[C@H](OC(C)=O)[C@H](OC(C)=O)[C@H]2C` (stereo partly specified), for which the TGI in [1], in assay [2], in assay [3], in assay [4], in [5] and in assay [6] was > 37.5 µM throughout. Moreover, the TGI in assay [7], in assay [8], in [9], in assay [10], in assay [11] and in assay [12] was > 37.5 µM each time. Further, the TGI in assay [13], in assay [14], in assay [15], in [16], in assay [17] and in assay [18] was > 37.5 µM in each case.

As to `Cn1c(=O)c2sc3c4sc5c(=O)n(C)c6ccccc6c5c4sc3c2c2ccccc21`, the TGI is > 100 µM in assay [1]; > 100 µM in [2]; > 100 µM in [3]; > 100 µM in assay [4]; 97.6 µM in assay [5]; > 100 µM in assay [6]. For the same molecule, the TGI in assay [7], in assay [8], in [9], in assay [10], in assay [11] and in assay [12] was > 100 µM each time. The TGI in assay [13], in assay [14], in [15], in assay [16], in assay [17] and in assay [18] was > 100 µM each time.

As to `CCCN(CCC)C(=S)N/N=C(/C)c1ccccc1O`, the TGI in [1] is 18.4 µM; in assay [2], > 62.9 µM; in assay [3], 32.3 µM; in assay [4], > 43.6 µM; in assay [5] it was > 87.1 µM; in [6], 13.3 µM. Further, the TGI is > 100 µM in assay [7]; 33 µM in [8]; > 100 µM in assay [9]; > 29.5 µM in assay [10]; > 57.8 µM in assay [11]; > 100 µM in [12]. Besides, the TGI in assay [13] is > 33.9 µM; in assay [14], 60.9 µM; in assay [15] it was 19.3 µM; in assay [16], > 100 µM; in assay [17], > 100 µM; in assay [18], 26 µM.

As to `Cc1cccc(NC(=O)O/N=C(\Cl)C(C)C)c1`, the TGI in assay [1] came to 11.4 µM; in assay [2], 35.8 µM; in [3] it was 29.4 µM; in assay [4], 28 µM; in assay [5], 26.9 µM; in assay [6], 33.2 µM. Also, the TGI in assay [7] turned out to be 25 µM; in [8], 34.2 µM; in assay [9], 30.9 µM; in assay [10], 4.27 µM; in assay [11], 43.2 µM; in assay [12], 3.17 µM. For the same molecule, the TGI in assay [13] amounted to 3.9 µM; in assay [14], 32.6 µM; in assay [15], 33.8 µM; in [16] it was 30.3 µM; in assay [17] it was 3.6 µM; in assay [18] it was 10.3 µM.

For `CC1=NN(c2nc(N)nc(CSc3cc(Cl)c(C)cc3S(N)(=O)=O)n2)C(C)(C)C1`, the TGI in assay [1], in assay [2], in assay [3], in assay [4], in [5] and in assay [6] was > 10 µM in each case. Also, the TGI in assay [7], in assay [8], in assay [9], in assay [10], in [11] and in assay [12] was > 10 µM throughout. The concentration for total growth inhibition (TGI) in assay [13] is > 10 µM; in assay [14], > 10 µM; in assay [15] it was > 10 µM; in assay [16], 0.953 µM; in assay [17], > 10 µM; in assay [18] it was > 10 µM.

On to `COC(=O)c1c(C)[nH]c2c1C(=O)C(=O)c1nc(C)c(C)nc1-2`, for which the TGI in [1] is 18.2 µM; in [2], 27.6 µM; in assay [3] it was 28.7 µM; in assay [4], 24.8 µM; in assay [5] it was 13.4 µM; in assay [6], > 100 µM. The TGI in [7] was 19.9 µM; in [8] it was 26.8 µM; in assay [9], 29.3 µM; in assay [10], 29.2 µM; in [11], 18.4 µM; in assay [12], > 100 µM. In addition, the TGI in assay [13] is 35.7 µM; in assay [14], 16.3 µM; in assay [15] it was 36.1 µM; in [16], 35.7 µM; in [17], 41.7 µM; in assay [18], 12.8 µM.

On to `Cc1csc(NNC(N)=O)n1`, for which the concentration for total growth inhibition (TGI) in assay [1], in assay [2], in assay [3], in [4], in [5] and in assay [6] was > 100 µM in each case. In addition, the TGI in assay [7], in [8], in assay [9], in assay [10], in [11] and in assay [12] was > 100 µM each time. The TGI in assay [13], in assay [14], in [15], in assay [16], in assay [17] and in assay [18] was > 100 µM in each case.

Turning to `CC(C)(C)OC(=O)N1CC(CCl)c2ccc(O)cc21` (stereo unspecified), the TGI in assay [1] worked out at 12.1 µM; in [2], 10.2 µM; in assay [3] it was 1.39 µM; in assay [4], 5.02 µM; in [5] it was 2.85 µM; in assay [6], 10.2 µM. In addition, the TGI came out at 3.67 µM in [7]; 11.7 µM in assay [8]; 5.51 µM in [9]; 5.29 µM in assay [10]; 12.1 µM in [11]; 11.6 µM in assay [12]. Besides, the TGI in assay [13] was found to be 9.61 µM; in assay [14], 3.2 µM; in assay [15], 13.3 µM; in assay [16], 6.17 µM; in assay [17], 11 µM; in assay [18], 11.5 µM.

Turning to `CCc1c2cc(OC)c(OC)cc2cc2c3cc(OC)c(OC)cc3cc[n+]12` (tested in a mixture with another compound), the concentration for total growth inhibition (TGI) is > 53.8 µM in [1]; > 100 µM in assay [2]; > 85.6 µM in assay [3]; > 91.6 µM in assay [4]; > 100 µM in [5]; > 76 µM in [6]. The TGI was > 36.5 µM in [7]; > 72.6 µM in [8]; > 83.1 µM in assay [9]; > 96.8 µM in assay [10]; 57.2 µM in assay [11]; > 73.4 µM in assay [12]. The TGI is > 100 µM in assay [13]; 87.1 µM in assay [14]; > 85.3 µM in assay [15]; > 71.6 µM in assay [16]; 75.8 µM in assay [17]; > 79.9 µM in assay [18].

As to `O=C(O)Cc1ccc(Nc2nc3ccccc3nc2C(=O)O)cc1`, the TGI in [1], in assay [2], in assay [3], in [4], in assay [5] and in assay [6] was > 100 µM throughout. The TGI in assay [7], in assay [8], in [9], in assay [10], in [11] and in [12] was > 100 µM in each case. The TGI in assay [13], in assay [14], in assay [15], in [16], in assay [17] and in assay [18] was > 100 µM throughout.

For `O=C(O)CCO/N=C1/C(c2c(O)[nH]c3ccccc23)=Nc2ccccc21`, the TGI in assay [1] was 34.8 µM; in assay [2], > 100 µM; in assay [3] it was > 100 µM; in [4], > 100 µM; in assay [5], 17.5 µM; in assay [6] it was > 100 µM. Further, the TGI in [7] is > 100 µM; in assay [8] it was > 100 µM; in [9] it was > 100 µM; in assay [10] it was 62.4 µM; in [11] it was > 100 µM; in assay [12], 63.8 µM. In addition, the concentration for total growth inhibition (TGI) was 40.3 µM in [13]; 37.7 µM in [14]; > 100 µM in assay [15]; 38.3 µM in assay [16]; > 100 µM in [17]; > 100 µM in assay [18].

Usually GI50 stands for the concentration at which growth is held to half of that of the control. For the molecule `Cc1ccc(/C=C2/N=C(N/N=C\C(O)C(O)C(O)CO)NC2=O)cc1` (stereo unspecified), the TGI in assay [1], in assay [2], in assay [3], in [4], in [5] and in assay [6] was > 100 µM throughout. Moreover, the TGI in [7], in assay [8], in assay [9], in assay [10], in [11] and in assay [12] was > 100 µM each time. Also, the TGI in [13], in assay [14], in assay [15], in assay [16], in assay [17] and in [18] was > 100 µM in each case. Besides, the GI50 in [13] is 51.5 µM.

In the case of `Cc1cn(C2C=CC(COP(=O)(OCc3ccc([N+](=O)[O-])o3)N(C)CCCCCl)O2)c(=O)[nH]c1=O` (stereo unspecified), the TGI in assay [1] turned out to be 20.8 µM; in assay [2] it was 30.9 µM; in assay [3], 17.2 µM; in [4], 19.6 µM; in [5], 11.3 µM; in assay [6], 23.6 µM. Besides, the total growth inhibition concentration (TGI) in [7] turned out to be 11.8 µM; in assay [8] it was 32.4 µM; in assay [9] it was 27.8 µM; in [10], 32.3 µM; in assay [11] it was 18.2 µM; in assay [12] it was 37 µM. In addition, the TGI in assay [13] was 25.4 µM; in assay [14] it was 12.9 µM; in assay [15], 12.7 µM; in assay [16], 31.1 µM; in assay [17], 27.1 µM; in assay [18] it was 23.2 µM.
